“Also recorded” adds a separate entry of the source.
How the values were obtained:
[1] = system: human melanocytes; assay type: cell-based
[2] = system: Bcl-2 protein; assay: Bcl-2 protein expression in MM4 cells (FACScan, Western blot); assay type: cell-based, human
Description: To determine if NGF induces Bcl-2 protein, MM4 cells were UV-irradiated with 10 mJ/cm^2 or sham irradiated and then supplemented with NGF or diluent alone as explained in Example 3. Twenty-four hours after irradiation, cells were washed with PBS and then detached with 0.5 mM EDTA and washed again with PBS. 10^6 cells were incubated with […] mouse anti human Bcl-2 monoclonal antibody (DAKO Co., Carpinteria, Calif.) or with the same concentration of normal mouse IgG (Cappel, Organon Teknika Co., West Chester, Pa., USA) in PBS with 0.3% Saponin (Sigma, St, Louis, Mo.) for 2 hours at 4%C. After three washes with PBS, cells were incubated with fluorescein-conjugated goat anti-mouse IgG (1 hour at 4%C) (Cappel), washed four times in PBS, fixed with 0.1% fresh formaldehyde, and washed three times in PBS. Fluorescence intensity was determined using FACScan flow cytometer (Becton-Dickinson, San Jose, Calif.).
(−) mouse IgG control; (_) diluent alone; ( . . . ) 50 ng/ml NGF.
MM4 cells were extracted in RIPA buffer (50 mM Tris-HCl [pH 8.0], 0.15 M NaCl, 0.5% sodium deoxycholate, 1% Triton X-100) in the presence of […] aprotinin and 75 µg/ml phenylmethylsulfonyl fluoride, sonicated for 1-3 seconds and centrifuged. […] of protein per lane were separated on 12% SDS/PAGE and blotted onto nitrocellulose paper (overnight, 40V). […]

[3] = system: p75 NGF-R; assay: Northern blot of p75 NGF-R mRNA in NGF-supplemented melanocytes; assay type: cell-based, human
[4] = system: MM4 cells; assay: DNA fragmentation (DNA ladder) after UV irradiation, FIG. 3A; assay type: cell-based, human; conditions: 50 ng/ml NGF, 24 hours after UV irradiation
Description: Cells in 100 mm tissue culture dishes were washed with cold PBS and disrupted in lysis buffer pH8 (10 mM tris, 150 mM NaCl, 0.1 mM EDTA, 1% SDS, 200 µg/ml proteinase K). After 15 hour incubation at […], samples were extracted twice with phenol plus chloroform (1:1, V/V) and precipitated overnight with ethanol (2.5×volume) and 3 M sodium acetate (1/10×volume). The DNA was then digested with DNAse free ribonuclease ([…]) for one hour at […], separated on 1% agarose gel and stained with ethidium bromide. The size marker is 100 bp DNA ladder (STD) (Gibco/BRL, Gaithersburg, Md.).
Melanocytes or MM4 cells were plated as described in Example 1. After irradiation, melanocytes were maintained in basal melanocyte medium lacking FBS and hydrocortisone, with 50 ng/ml NGF or diluent alone (melanocyte medium). MM4 cells were maintained in DME supplemented with 50 ng/ml NGF or diluent alone.
The standard (STD) is 100 bp DNA ladder (Gibco/BRL). (See FIG. 3A).

NGF: nerve growth factor, neurotrophin ligand of p75 NGF-R and trk
Cell yields of melanocytes versus diluent alone ([1]; UV 10 mJ/cm^2, 50 ng/ml NGF, 7 experiments): significantly higher
Cell yields, NGF-treated versus control cultures ([1]; determined daily for 19 days): up to 6.5 fold
Thymidine labeling index, NGF-treated versus control cultures ([1]; determined daily for 19 days): ≤ 10 fold
Appearance of cultures after UV irradiation ([1]; melanocytes and MM4 cells, 50 ng/ml NGF): appeared healthy
Bcl-2 level ([2]; UV 10 mJ/cm^2 followed by 50 ng/ml NGF, 24 hours): substantially higher; also recorded: Bcl-2 induction
Bcl-2 level ([2]; sham irradiated, 50 ng/ml NGF): only low levels of Bcl-2 protein
p75 NGF-R mRNA transcript levels versus diluent controls [3]: several-fold higher
DNA fragmentation after UV irradiation [4]: not fragmented; also recorded: far less fragmentation
